Measured values: ChEMBL document CHEMBL5678818, “Discovery of potent SOS1 inhibitors that block RAS activation via disruption of the RAS-SOS1 interaction” (Proc Natl Acad Sci U S A, 2019)

Tests used:
[1] = molecular target: T1, Activin receptor type-1B (Homo sapiens) (UniProt P36896); assay: Inhibition of ACVR1B (unknown origin) assessed as residual activity at 100 nM by KINOMEscan analysis relative to control
T1 sequence (whole entry): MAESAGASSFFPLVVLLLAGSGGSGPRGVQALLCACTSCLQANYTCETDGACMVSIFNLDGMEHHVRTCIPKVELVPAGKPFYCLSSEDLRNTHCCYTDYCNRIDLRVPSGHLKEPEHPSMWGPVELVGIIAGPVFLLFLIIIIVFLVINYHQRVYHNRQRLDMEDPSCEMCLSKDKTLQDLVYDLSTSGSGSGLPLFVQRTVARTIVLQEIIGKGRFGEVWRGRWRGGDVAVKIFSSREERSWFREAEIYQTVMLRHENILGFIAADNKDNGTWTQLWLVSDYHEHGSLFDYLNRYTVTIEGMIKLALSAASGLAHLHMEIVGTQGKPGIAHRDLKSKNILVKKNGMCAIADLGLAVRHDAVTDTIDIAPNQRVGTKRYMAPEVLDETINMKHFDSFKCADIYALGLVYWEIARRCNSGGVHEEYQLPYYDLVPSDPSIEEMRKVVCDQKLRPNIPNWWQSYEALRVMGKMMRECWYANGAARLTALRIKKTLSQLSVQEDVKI

Homo sapiens = species: Homo sapiens; assay: Inhibition of JNK2 (unknown origin) assessed as residual activity at 100 nM by KINOMEscan analysis relative to control
[2] = molecular target: Serine/threonine-protein kinase MRCK beta (Homo sapiens) (UniProt Q9Y5S2); assay: Inhibition of MRCKB (unknown origin) assessed as residual activity at 100 nM by KINOMEscan analysis relative to control
Chain of Serine/threonine-protein kinase MRCK beta (Homo sapiens) (Q9Y5S2 whole entry): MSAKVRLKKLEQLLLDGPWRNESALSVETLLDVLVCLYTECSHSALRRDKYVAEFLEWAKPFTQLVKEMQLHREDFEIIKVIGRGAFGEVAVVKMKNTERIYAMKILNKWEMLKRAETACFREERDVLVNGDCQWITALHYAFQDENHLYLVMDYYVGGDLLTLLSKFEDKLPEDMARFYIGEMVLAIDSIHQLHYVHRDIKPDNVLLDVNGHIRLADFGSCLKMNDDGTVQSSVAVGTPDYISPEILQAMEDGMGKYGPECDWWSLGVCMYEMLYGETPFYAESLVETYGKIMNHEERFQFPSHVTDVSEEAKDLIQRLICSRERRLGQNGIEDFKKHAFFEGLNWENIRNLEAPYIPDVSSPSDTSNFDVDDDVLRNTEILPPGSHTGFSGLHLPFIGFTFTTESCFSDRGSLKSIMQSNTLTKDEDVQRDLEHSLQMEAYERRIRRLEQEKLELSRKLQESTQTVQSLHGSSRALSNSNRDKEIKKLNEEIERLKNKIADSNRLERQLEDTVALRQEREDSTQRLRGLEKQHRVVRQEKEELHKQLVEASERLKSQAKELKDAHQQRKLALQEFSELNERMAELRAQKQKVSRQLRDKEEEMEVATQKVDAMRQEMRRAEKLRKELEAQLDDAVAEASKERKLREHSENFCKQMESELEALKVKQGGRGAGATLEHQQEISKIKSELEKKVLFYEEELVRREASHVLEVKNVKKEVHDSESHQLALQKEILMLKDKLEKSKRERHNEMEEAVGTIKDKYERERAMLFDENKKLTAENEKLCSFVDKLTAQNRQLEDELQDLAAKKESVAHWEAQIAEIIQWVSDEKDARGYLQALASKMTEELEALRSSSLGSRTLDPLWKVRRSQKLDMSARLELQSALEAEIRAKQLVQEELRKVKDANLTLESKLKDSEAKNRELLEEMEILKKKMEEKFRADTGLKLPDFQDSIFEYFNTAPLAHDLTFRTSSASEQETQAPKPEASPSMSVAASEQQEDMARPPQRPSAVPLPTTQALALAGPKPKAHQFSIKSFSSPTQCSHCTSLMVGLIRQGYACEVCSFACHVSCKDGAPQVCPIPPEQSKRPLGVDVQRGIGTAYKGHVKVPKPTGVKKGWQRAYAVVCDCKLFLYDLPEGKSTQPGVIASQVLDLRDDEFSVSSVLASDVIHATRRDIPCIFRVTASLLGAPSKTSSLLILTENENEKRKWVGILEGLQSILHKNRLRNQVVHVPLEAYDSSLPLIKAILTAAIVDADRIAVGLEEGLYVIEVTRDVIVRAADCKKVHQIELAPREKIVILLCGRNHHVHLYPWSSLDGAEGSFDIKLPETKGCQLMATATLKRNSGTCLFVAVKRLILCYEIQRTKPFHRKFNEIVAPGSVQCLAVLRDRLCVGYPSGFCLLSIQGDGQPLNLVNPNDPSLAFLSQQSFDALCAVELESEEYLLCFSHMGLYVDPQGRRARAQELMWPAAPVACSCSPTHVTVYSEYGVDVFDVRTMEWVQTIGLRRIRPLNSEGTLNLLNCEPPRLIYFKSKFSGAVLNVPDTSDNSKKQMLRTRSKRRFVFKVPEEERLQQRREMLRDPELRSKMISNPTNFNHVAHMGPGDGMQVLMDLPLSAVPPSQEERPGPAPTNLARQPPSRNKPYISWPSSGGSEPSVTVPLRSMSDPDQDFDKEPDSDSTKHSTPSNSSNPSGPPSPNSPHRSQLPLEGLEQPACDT

[3] = molecular target: T2, Serine/threonine-protein kinase Nek3 (Homo sapiens) (UniProt P51956); assay: Inhibition of NEK3 (unknown origin) assessed as residual activity at 100 nM by KINOMEscan analysis relative to control
T2 sequence (whole entry): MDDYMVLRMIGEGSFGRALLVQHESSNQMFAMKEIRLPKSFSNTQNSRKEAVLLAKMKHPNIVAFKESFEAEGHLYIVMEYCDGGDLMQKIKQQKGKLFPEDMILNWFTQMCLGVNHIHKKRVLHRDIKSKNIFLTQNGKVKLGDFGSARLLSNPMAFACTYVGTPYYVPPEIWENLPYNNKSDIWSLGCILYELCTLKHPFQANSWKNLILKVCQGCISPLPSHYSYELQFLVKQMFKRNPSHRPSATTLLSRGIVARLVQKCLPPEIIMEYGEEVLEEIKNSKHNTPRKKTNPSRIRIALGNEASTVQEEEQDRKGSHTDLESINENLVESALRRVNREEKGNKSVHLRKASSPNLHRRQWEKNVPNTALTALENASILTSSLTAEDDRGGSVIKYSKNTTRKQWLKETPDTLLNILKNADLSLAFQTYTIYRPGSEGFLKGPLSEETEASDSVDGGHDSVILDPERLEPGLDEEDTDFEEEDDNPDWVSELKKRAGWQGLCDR

[4] = molecular target: T3, Phosphatidylinositol 5-phosphate 4-kinase type-2 beta (Homo sapiens) (UniProt P78356); assay: Inhibition of PIP5K2B (unknown origin) assessed as residual activity at 100 nM by KINOMEscan analysis relative to control
T3 sequence (whole entry): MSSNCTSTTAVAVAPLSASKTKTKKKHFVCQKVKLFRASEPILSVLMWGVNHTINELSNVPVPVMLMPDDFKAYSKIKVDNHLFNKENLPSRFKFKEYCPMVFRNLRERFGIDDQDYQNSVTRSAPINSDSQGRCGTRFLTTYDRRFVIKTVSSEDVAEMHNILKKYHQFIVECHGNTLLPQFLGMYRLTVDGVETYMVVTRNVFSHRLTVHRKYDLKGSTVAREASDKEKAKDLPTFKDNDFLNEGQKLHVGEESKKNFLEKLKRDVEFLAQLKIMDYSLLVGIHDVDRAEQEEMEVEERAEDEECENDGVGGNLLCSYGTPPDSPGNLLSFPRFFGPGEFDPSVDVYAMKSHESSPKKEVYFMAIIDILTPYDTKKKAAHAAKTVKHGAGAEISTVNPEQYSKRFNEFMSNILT

[5] = molecular target: Ribosomal protein S6 kinase alpha-6 (Homo sapiens) (UniProt Q9UK32); assay: Inhibition of C-terminal RSK4 kinetic domain 2 (unknown origin) assessed as residual activity at 100 nM by KINOMEscan analysis relative to control
Chain of Ribosomal protein S6 kinase alpha-6 (Homo sapiens) (Q9UK32 whole entry, the tested form may be a part): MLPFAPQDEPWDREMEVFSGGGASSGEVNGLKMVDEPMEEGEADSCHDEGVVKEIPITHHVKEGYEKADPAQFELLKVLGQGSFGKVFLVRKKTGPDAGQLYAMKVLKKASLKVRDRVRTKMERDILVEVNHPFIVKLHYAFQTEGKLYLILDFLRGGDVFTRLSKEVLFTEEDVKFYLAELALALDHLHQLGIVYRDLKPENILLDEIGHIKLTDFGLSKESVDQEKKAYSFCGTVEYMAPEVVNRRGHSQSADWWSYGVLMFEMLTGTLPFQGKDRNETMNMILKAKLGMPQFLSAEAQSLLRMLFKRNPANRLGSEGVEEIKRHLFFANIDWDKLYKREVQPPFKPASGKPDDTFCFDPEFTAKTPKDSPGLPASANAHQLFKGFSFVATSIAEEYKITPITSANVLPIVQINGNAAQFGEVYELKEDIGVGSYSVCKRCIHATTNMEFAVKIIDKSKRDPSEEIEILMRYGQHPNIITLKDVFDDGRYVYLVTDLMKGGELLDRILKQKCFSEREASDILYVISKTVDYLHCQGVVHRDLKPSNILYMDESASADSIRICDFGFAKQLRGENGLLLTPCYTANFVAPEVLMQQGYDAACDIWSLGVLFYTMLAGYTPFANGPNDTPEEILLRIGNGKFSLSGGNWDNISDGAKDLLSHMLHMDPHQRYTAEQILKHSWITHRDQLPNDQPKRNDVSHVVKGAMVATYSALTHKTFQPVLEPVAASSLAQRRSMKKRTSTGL

[6] = molecular target: T4, Serine/threonine-protein kinase TAO1 (Homo sapiens) (UniProt Q7L7X3); assay: Inhibition of TAOK1 (unknown origin) assessed as residual activity at 100 nM by KINOMEscan analysis relative to control
T4 sequence (whole entry): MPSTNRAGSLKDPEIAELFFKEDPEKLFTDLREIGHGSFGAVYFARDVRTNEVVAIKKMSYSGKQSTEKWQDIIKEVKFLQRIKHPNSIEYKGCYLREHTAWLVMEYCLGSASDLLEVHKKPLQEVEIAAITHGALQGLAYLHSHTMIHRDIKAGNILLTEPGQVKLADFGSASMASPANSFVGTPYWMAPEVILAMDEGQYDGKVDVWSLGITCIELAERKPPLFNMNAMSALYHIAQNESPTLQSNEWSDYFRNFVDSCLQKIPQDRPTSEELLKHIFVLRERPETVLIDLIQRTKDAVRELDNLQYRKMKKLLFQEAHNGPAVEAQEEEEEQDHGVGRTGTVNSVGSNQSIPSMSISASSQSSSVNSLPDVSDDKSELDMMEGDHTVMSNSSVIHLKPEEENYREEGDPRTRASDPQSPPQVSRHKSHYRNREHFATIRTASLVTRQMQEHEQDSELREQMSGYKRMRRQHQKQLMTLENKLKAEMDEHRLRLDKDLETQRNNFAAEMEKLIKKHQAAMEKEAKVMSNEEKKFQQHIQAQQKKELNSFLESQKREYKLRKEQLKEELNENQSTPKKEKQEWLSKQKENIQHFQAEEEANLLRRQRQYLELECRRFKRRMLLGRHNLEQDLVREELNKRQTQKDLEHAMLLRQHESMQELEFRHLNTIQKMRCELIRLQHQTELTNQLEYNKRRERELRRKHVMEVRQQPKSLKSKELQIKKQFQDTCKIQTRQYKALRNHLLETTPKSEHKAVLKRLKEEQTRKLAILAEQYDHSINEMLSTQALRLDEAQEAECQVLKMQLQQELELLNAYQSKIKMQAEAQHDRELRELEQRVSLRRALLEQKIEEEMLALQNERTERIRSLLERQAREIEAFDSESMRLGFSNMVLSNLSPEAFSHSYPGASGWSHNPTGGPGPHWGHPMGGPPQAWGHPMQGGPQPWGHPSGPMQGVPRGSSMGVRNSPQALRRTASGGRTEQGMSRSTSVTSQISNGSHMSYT

[7] = molecular target: Mitogen-activated protein kinase kinase kinase 14 (Homo sapiens) (UniProt Q99558); assay: Inhibition of NIK (unknown origin) assessed as residual activity at 100 nM by KINOMEscan analysis relative to control
Chain of Mitogen-activated protein kinase kinase kinase 14 (Homo sapiens) (Q99558 whole entry, looked up): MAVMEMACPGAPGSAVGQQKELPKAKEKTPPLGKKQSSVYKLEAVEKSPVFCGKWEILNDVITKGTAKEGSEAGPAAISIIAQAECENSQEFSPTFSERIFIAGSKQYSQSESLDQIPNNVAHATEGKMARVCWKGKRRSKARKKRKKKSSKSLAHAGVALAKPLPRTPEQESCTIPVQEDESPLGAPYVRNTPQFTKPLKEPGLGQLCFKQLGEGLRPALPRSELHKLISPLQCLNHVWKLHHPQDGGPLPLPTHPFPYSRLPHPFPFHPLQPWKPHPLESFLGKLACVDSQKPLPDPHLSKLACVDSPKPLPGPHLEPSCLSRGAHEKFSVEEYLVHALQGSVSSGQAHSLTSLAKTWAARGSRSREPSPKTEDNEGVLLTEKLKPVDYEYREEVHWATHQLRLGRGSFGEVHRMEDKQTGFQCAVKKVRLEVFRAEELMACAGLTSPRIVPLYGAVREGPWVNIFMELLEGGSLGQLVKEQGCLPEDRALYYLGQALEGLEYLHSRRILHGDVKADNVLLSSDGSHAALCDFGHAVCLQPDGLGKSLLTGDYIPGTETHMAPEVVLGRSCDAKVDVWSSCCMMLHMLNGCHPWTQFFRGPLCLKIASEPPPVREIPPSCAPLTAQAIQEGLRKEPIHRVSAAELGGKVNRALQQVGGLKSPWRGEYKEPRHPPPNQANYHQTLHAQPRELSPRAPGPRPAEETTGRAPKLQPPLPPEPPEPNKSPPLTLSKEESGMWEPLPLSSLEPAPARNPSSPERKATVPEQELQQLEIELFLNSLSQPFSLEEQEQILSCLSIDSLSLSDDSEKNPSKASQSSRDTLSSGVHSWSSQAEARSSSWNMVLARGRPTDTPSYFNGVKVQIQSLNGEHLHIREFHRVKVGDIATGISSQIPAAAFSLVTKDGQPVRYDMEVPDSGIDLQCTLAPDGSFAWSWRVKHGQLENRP

COc1cc2ncnc(N[C@H](C)c3cccc4ccccc34)c2cc1OC
Activity [1]: 89%
Activity (Homo sapiens): 68%
Activity [2]: 82%
Activity [3]: 97%
Activity [4]: 91%
Activity [5]: 86%
Activity [6]: 88%
Activity [7]: 81%
